The values that follow come from US20120053200A1, “BACE 2 INHIBITORS” (priority 2010, published 2012).

The assay concerns the target T1, BACE2 (Rattus norvegicus, UniProt Q6IE75).
T1 construct: endogenous cellular BACE2 in the Ins1e rat cell line; endogenous in cells; host or cells: INS-TMEM27 (INS1e-derived rat beta-cell line with doxycycline-inducible full-length hTMEM27)
T1 sequence (Q6IE75 63-514): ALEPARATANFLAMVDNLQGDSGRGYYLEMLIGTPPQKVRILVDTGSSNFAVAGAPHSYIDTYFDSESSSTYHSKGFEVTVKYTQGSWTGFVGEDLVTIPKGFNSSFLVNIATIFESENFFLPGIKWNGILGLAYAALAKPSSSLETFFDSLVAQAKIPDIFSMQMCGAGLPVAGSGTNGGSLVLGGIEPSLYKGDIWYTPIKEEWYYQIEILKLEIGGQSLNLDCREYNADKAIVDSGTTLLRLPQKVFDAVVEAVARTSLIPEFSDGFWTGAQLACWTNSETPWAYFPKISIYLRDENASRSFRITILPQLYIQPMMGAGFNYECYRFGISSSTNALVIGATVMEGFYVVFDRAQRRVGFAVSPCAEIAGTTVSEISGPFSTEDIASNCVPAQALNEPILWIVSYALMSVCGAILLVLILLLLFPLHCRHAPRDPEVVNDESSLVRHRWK
In words: Assay for BACE inhibition by measuring cellular TMEM27 cleavage (INS-TMEM27 cells, ELISA of shed TMEM27). It counts as cell-based. Conditions: inhibition of human TMEM27 cleavage by endogenous cellular BACE2 in INS1e-derived INS-TMEM27 rat cell line; ELISA of shed TMEM27 in supernatant. An outline of the steps:
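Rat INS1e-derived cells with doxycycline-inducible full-length human TMEM27, cleaved by endogenous BACE2. After 2 days' culture, inhibitor added; 2 h later, doxycycline to 500 ng/ml final, then 46 h at 37 °C. Shed TMEM27 in medium quantified by sandwich ELISA; IC50 from curve fit.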
The IC50 is the concentration that inhibits the measured activity by half. A high value points to weaker potency in that assay. `CC(=O)C1CC(c2ccc(F)cc2)N(C(=O)c2cccc(C(=O)N[C@@H](Cc3ccccc3)[C@H](O)CNCc3cccc(C(F)(F)F)c3)c2)C1` (stereo partly drawn) [Example 64, 3-[4-Acetyl-2-(4-fluoro-phenyl)-pyrrolidine-1-carbonyl]-N-[(1S,2R)-1-benzyl-2-hydroxy-3-(3-trifluoromethyl-benzylamino)-propyl]-benzamide] came in with a half-inhibitory concentration (IC50) of 26 nM.
Turning to `O=C(N[C@@H](Cc1ccccc1)[C@H](O)CNCc1cccc(C(F)(F)F)c1)c1cccc(C(=O)N2CCC[C@H]2Cc2ccccc2)c1` [Example 65, N-[(1S,2R)-1-Benzyl-2-hydroxy-3-(3-trifluoromethyl-benzylamino)-propyl]-3-((S)-2-benzyl-pyrrolidine-1-carbonyl)-benzamide], half-maximal inhibition (IC50) required 51 nM.
For `O=C(N[C@@H](Cc1ccccc1)[C@H](O)CNCc1cccc(C(F)(F)F)c1)c1cccc(C(=O)N2CCC[C@@H]2c2ccccc2)c1` [Example 66, N-[(1S,2R)-1-Benzyl-2-hydroxy-3-(3-trifluoromethyl-benzylamino)-propyl]-3-((R)-2-phenyl-pyrrolidine-1-carbonyl)-benzamide] the value was 314 nM.
For `O=C(N[C@@H](Cc1ccccc1)[C@H](O)CNCc1cccc(C(F)(F)F)c1)c1cccc(C(=O)N2CCC[C@H]2c2ccc(F)cc2)c1` [Example 67, N-[(1S,2R)-1-Benzyl-2-hydroxy-3-(3-trifluoromethyl-benzylamino)-propyl]-3-[(S)-2-(4-fluoro-phenyl)-pyrrolidine-1-carbonyl]-benzamide] the value was 4 nM; for `O=C(N[C@@H](Cc1ccccc1)[C@H](O)CNCc1cccc(C(F)(F)F)c1)c1cccc(C(=O)N2CCCC2c2cccc(F)c2)c1` (stereo partly drawn) [Example 68, N-[(1S,2R)-1-Benzyl-2-hydroxy-3-(3-trifluoromethyl-benzylamino)-propyl]-3-[2-(3-fluoro-phenyl)-pyrrolidine-1-carbonyl]-benzamide], 2 nM.
For `O=C(N[C@@H](Cc1ccccc1)[C@H](O)CNCc1cccc(C(F)(F)F)c1)c1cccc(C(=O)N2CCCC2C2CCCCC2)c1` (stereo partly drawn) [Example 69, N-[(1S,2R)-1-Benzyl-2-hydroxy-3-(3-trifluoromethyl-benzylamino)-propyl]-3-(2-cyclohexyl-pyrrolidine-1-carbonyl)-benzamide] the value was 7 nM; for `CC(C)CC1CCCN1C(=O)c1cccc(C(=O)N[C@@H](Cc2ccccc2)[C@H](O)CNCc2cccc(C(F)(F)F)c2)c1` (stereo partly drawn) [Example 70, N-[(1S,2R)-1-Benzyl-2-hydroxy-3-(3-trifluoromethyl-benzylamino)-propyl]-3-(2-isobutyl-pyrrolidine-1-carbonyl)-benzamide], 147 nM.
Take `O=C(N[C@@H](Cc1ccccc1)[C@H](O)CNCc1cccc(C(F)(F)F)c1)c1cccc(C(=O)N2CCCC2C(=O)c2ccccc2)c1` (stereo partly drawn) [Example 71, 3-(2-Benzoyl-pyrrolidine-1-carbonyl)-N-[(1S,2R)-1-benzyl-2-hydroxy-3-(3-trifluoromethyl-benzylamino)-propyl]-benzamide]: it took 484 nM to reach half-maximal inhibition (IC50).
On to `O=C(N[C@@H](Cc1ccccc1)[C@H](O)CNCc1cccc(C(F)(F)F)c1)c1cccc(C(=O)N2CCCC2C2CCCC2)c1` (stereo partly drawn) [Example 72, N-[(1S,2R)-1-Benzyl-2-hydroxy-3-(3-trifluoromethyl-benzylamino)-propyl]-3-(2-cyclopentyl-pyrrolidine-1-carbonyl)-benzamide], for which 66 nM corresponded to half-maximal inhibition (IC50).
The molecule `CC(C)(C)C1CCCN1C(=O)c1cccc(C(=O)N[C@@H](Cc2ccccc2)[C@H](O)CNCc2cccc(C(F)(F)F)c2)c1` (stereo partly drawn) [Example 73, N-[(1S,2R)-1-Benzyl-2-hydroxy-3-(3-trifluoromethyl-benzylamino)-propyl]-3-(2-tert-butyl-pyrrolidine-1-carbonyl)-benzamide] returned an IC50 of 56 nM.
For `Cc1csc(CN(C)C(=O)c2cc(C(=O)N[C@@H](Cc3ccccc3)[C@H](O)CNCc3cncc(C(C)(C)F)c3)cc(N(C)S(C)(=O)=O)c2)n1` [Example 74, N-((1S,2R)-1-Benzyl-3-{[5-(1-fluoro-1-methyl-ethyl)-pyridin-3-ylmethyl]-amino}-2-hydroxy-propyl)-5-(methanesulfonyl-methyl-amino)-N′-methyl-N′-(4-methyl-thiazol-2-ylmethyl)-isophthalamide] the value was 255 nM.
“N-[(1S,2R)-1-Benzyl-2-hydroxy-3-(3-trifluoromethyl-benzylamino)-propyl]-3-(methanesulfonyl-methyl-amino)-5-(2-phenyl-pyrrolidine-1-carbonyl)-benzamide [Example 50]” registered a half-inhibitory concentration (IC50) of 3 nM.
